Test results: ChEMBL document CHEMBL1201862, “PubChem BioAssay data set” (2004)
Calls of active or inactive are those of the source.

How the values were obtained:
CAAX prenyl protease 2 = molecular target: T1, CAAX prenyl protease 2 (Saccharomyces cerevisiae S288c, UniProt Q03530); type: biochemical
T1 sequence (Q03530 whole entry): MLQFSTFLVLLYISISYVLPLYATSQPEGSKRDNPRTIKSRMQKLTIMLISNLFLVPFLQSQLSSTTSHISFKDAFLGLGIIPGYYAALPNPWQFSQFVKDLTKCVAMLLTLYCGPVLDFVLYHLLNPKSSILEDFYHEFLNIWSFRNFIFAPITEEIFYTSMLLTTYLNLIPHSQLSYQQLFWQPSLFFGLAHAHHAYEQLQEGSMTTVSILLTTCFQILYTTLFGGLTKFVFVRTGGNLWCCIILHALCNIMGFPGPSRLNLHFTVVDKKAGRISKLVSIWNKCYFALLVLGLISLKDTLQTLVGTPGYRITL

Trypsin = Trypsin (Sus scrofa, UniProt P00761); assay: trypsin protease activity blockade – biochemical, quenched peptide fluorescence, cherry-pick, selectivity assay for Rce1 protease inhibitor project, dose response (AID 488789)
Chain of Trypsin (P00761 whole entry): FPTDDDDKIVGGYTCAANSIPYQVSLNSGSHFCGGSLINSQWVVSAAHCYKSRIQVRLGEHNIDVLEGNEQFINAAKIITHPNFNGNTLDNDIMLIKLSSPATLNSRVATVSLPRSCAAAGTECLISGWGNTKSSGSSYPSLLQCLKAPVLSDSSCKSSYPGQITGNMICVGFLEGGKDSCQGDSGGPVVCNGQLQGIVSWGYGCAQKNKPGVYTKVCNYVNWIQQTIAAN

[1] = fluconazole-exposed Candida albicans growth modulators – fluorescence, retest, confirmation (AID 2467); type: functional, cell-based
Cysteine protease ATG4B = Cysteine protease ATG4B (Homo sapiens, UniProt Q9Y4P1); type: functional;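 also: Fluorescence-based dose-response confirmation assay measuring inhibition of ATG4B activity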
Chain of Cysteine protease ATG4B (Q9Y4P1 whole entry): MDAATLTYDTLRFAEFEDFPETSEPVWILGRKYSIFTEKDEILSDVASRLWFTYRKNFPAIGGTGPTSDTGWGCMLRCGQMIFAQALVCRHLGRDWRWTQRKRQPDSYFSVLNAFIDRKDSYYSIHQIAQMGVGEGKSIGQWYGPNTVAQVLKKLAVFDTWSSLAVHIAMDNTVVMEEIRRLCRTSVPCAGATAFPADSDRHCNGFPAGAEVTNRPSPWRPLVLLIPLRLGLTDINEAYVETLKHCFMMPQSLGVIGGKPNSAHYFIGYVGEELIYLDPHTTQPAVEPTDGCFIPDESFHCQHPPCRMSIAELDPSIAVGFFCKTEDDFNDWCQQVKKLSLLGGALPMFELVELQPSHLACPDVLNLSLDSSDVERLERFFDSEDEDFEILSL

[2] = NIH-3T3 fibroblast cytotoxicity, dose response, cytotoxicity control, cell-based, fluorescence, Alamar Blue, secondary assay (AID 2327); type: functional;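 also: NIH-3T3 mouse fibroblasts cultured with fluconazole at 8 µg/mL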
Phospholipase A2 = Phospholipase A2 (Homo sapiens, UniProt P04054); type: functional;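 also: confirmatory dose-response counterscreen on phospholipase A2, testing hits that came from an ultra-high-throughput screen for ATG4B inhibitors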
Chain of Phospholipase A2 (P04054 whole entry): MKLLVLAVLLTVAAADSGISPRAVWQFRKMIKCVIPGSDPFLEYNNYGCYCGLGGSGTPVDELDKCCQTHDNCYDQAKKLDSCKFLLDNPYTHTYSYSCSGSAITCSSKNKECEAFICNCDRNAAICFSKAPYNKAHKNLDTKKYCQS

[3] = molecular target: DNA dC->dU-editing enzyme APOBEC-3G (Homo sapiens, UniProt Q9HC16); assay: Dose Response confirmation of small molecule APOBEC3G DNA Deaminase Inhibitors via a fluorescence-based single-stranded DNA deaminase assay. [Related pubchem assays (depositor defined):AID493012, AID493028]; type: functional
Chain of DNA dC->dU-editing enzyme APOBEC-3G (Q9HC16 whole entry): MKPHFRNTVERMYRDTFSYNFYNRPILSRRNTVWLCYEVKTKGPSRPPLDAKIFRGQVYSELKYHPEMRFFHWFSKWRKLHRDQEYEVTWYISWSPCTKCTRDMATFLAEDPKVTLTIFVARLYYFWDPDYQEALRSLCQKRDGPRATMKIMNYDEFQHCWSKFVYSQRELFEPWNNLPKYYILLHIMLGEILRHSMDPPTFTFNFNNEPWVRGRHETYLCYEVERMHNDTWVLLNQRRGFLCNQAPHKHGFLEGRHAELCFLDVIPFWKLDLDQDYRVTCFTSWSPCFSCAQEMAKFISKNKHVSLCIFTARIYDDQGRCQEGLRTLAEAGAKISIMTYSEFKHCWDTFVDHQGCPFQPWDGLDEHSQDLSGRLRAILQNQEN

[4] = molecular target: DNA dC->dU-editing enzyme APOBEC-3A (Homo sapiens, UniProt P31941); assay: A3A deaminase inhibition for selectivity – biochemical, dose response (AID 504722); type: functional
Chain of DNA dC->dU-editing enzyme APOBEC-3A (P31941 whole entry): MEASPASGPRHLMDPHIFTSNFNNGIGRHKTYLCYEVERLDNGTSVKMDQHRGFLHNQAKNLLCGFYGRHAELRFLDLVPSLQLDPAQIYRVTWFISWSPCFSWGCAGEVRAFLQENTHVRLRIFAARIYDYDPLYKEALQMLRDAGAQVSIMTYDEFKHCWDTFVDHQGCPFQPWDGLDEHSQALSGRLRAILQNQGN

[5] = molecular target: Polyadenylate-binding protein 1 (Homo sapiens, UniProt P11940); assay: blockers of PABP interaction with poly(A) – biochemical, fluorescence polarization, […] (AID 2014)
Chain of Polyadenylate-binding protein 1 (P11940 whole entry): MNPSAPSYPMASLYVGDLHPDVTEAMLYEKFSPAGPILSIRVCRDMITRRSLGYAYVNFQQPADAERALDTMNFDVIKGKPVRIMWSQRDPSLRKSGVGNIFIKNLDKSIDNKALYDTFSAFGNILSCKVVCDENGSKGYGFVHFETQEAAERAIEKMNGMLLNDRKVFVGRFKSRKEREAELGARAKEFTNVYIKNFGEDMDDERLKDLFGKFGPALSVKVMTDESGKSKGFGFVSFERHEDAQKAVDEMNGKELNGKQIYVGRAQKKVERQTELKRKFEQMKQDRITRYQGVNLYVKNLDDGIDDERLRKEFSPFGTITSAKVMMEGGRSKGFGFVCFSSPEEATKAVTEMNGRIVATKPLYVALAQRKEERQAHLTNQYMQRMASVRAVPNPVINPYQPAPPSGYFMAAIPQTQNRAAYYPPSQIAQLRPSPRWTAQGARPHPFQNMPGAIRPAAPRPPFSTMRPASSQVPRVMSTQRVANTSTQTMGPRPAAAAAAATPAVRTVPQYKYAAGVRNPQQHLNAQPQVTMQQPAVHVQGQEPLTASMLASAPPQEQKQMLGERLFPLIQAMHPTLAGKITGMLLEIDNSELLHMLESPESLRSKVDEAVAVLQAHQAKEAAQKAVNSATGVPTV

[6] = molecular target: Eukaryotic translation initiation factor 4H (Homo sapiens, UniProt Q15056); assay: eIF4H binding inhibition – biochemical, uHTS, fluorescence polarization, translation initiation inhibitor project, primary screen (AID 2012)
[7] = molecular target: T2, Heat shock factor protein 1 (Mus musculus, UniProt P38532); assay: decrease of HSF1-responsive luciferase luminescence – cell-based, NIH3T3, dose retest, confirmation (AID 2382); type: functional;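 also: NIH3T3 fibroblasts with HSF1-driven luciferase reporter stressed by proteasome inhibitor MG132; luminescence from HSF1-driven luciferase expression after 8 hours of MG132 stress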
T2 sequence (P38532 whole entry): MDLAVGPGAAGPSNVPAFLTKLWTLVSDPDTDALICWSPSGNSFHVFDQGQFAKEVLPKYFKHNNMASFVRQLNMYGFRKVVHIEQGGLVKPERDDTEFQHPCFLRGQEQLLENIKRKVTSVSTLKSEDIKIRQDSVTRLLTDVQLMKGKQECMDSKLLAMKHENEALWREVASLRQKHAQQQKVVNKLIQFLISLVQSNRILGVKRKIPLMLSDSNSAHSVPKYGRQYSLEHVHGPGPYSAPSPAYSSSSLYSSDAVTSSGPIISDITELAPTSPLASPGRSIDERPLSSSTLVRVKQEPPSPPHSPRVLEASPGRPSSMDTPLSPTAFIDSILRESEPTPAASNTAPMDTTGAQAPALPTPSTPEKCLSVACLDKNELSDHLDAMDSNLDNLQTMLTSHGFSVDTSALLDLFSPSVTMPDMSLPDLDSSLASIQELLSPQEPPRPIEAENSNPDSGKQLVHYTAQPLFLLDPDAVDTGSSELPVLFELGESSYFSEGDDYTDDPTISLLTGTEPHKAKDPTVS

[8] = molecular target: Glucose-6-phosphate 1-dehydrogenase (Homo sapiens, UniProt P11413); assay: inhibition of Homo sapiens G6PD, dose series – biochemical, fluorescence, selectivity assay for P. falciparum G6PD inhibitor project, dose response (AID 504792); type: functional
[9] = molecular target: Peroxisome proliferator-activated receptor gamma/Nuclear receptor coactivator 2 (Homo sapiens, UniProt P37231); assay: (§1) TR-FRET dose response biochemical High Throughput Screening assay for agonists of the steroid receptor coactivator 2 (SRC-2) recruitment by the peroxisome proliferator-activated receptor gamma (PPAR gamma): non-selective agonists. [Related pubchem assays: 1297, 1032 ]; type: functional
[10] = molecular target: Peroxisome proliferator-activated receptor gamma/Nuclear receptor coactivator 1 (Homo sapiens, UniProt P37231); assay: as §1, with “1 (SRC-1)” for “2 (SRC-2)”, “assays (depositor defined):AID1300, AID1808, AID504735, AID631]” for “assays: 1297, 1032 ]”; type: protein assay
[11] = molecular target: Peroxisome proliferator-activated receptor gamma/Nuclear receptor coactivator 3 (Homo sapiens, UniProt P37231); assay: as §1, with “3 (SRC-3)” for “2 (SRC-2)”, “1301 (Confirmation screen.), 1048 (Primary screen.)]” for “1297, 1032 ]”; type: functional
Chain of Peroxisome proliferator-activated receptor gamma/Nuclear receptor coactivator 3 (P37231 whole entry): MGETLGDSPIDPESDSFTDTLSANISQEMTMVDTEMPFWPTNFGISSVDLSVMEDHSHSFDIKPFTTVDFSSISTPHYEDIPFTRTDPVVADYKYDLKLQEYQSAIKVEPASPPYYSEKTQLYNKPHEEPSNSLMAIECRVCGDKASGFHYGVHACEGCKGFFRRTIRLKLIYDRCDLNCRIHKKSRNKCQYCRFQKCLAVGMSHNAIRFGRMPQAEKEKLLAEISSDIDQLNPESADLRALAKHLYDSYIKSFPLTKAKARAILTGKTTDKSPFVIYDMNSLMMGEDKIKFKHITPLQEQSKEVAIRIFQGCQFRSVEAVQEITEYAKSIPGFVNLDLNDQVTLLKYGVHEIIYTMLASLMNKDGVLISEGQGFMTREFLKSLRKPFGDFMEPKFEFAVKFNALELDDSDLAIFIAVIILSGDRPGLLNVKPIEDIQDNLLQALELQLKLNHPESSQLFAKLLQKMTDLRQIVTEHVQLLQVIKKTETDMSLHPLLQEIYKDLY
Chain of Peroxisome proliferator-activated receptor gamma/Nuclear receptor coactivator 3 (Q9Y6Q9 whole entry, further chain): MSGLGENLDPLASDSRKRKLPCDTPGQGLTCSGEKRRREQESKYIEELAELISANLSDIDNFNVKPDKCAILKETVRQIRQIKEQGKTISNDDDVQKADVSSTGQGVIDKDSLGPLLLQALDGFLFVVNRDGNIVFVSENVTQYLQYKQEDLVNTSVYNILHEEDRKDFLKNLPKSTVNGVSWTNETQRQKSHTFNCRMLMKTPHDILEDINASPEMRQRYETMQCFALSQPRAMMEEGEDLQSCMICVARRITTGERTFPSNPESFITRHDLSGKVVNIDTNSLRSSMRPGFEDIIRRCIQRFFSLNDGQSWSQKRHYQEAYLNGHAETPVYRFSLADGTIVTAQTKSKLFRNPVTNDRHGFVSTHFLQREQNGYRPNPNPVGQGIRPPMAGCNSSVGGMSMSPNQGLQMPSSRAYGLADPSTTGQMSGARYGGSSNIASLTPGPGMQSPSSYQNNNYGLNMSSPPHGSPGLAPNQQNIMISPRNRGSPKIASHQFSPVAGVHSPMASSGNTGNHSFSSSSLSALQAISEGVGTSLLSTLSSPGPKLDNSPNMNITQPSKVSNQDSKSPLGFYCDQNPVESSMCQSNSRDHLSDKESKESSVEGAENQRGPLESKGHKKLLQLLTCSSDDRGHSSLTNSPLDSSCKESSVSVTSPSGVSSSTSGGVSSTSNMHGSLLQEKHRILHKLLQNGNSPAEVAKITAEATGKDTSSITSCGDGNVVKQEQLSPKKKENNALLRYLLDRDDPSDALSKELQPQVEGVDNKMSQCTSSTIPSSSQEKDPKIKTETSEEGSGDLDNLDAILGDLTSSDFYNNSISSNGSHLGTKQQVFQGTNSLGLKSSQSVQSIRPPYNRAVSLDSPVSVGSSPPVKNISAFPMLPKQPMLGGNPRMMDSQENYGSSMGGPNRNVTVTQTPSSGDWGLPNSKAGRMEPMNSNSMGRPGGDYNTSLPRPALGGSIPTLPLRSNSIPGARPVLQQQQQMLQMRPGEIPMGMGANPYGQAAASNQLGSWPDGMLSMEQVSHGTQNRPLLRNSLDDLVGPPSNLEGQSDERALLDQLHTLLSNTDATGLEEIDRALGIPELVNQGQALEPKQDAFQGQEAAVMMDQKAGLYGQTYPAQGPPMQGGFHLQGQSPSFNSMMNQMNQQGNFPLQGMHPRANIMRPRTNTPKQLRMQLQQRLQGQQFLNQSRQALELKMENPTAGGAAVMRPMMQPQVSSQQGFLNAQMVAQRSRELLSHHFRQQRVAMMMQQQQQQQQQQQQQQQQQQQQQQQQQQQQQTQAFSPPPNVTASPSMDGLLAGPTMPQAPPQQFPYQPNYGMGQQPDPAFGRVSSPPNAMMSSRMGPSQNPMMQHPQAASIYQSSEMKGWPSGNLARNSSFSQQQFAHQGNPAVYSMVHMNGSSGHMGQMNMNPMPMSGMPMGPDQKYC

Streptokinase A = molecular target: T3, Streptokinase A (Streptococcus pyogenes serotype M1, UniProt P10520); assay: viability-normalized secreted streptokinase activity reduction – plasminogen activation absorbance, OD405, dose response (AID 1914); type: functional, Streptococcus pyogenes M1 GAS;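 also: secreted streptokinase activity via plasminogen activation per viability signal from cell pellet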
T3 sequence (P10520 whole entry): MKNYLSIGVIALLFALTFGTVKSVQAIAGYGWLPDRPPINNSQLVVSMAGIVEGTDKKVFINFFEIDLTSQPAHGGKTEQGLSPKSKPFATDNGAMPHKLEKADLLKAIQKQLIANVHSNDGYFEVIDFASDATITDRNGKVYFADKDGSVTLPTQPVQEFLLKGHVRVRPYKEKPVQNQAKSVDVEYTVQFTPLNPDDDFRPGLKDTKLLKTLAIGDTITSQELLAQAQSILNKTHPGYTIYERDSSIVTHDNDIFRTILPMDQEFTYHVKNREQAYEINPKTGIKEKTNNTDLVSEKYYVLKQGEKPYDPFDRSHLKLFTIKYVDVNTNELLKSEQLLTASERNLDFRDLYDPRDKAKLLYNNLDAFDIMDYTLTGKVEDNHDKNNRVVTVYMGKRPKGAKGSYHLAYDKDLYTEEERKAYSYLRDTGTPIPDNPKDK

Streptococcus = assay: GAS UMAA2166 growth inhibition – luminescence, BacTiterGlo, counter-screen for streptokinase expression inhibitor project, dose response (AID 1915); type: functional, organism-based;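 also: potency for reduction of bacterial viability or growth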
[12] = Trypanosoma cruzi growth suppression in host cells – NIH3T3 host cells, beta-gal luminescence, confirmation (AID 2044); type: functional, cell-based;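 also: intracellular parasites grown in NIH/3T3 mouse fibroblasts as host cells; luminescent beta-galactosidase reporter signal from transgenic T. cruzi replicating inside host cells; inhibitors lower the luminescence signal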
[13] = tested on: Streptococcus sp. 'group A'; assay: Streptococcus pyogenes SK(-)GAS viability under kanamycin – luminescence, BacTiterGlo, confirmation, counter-screen for streptokinase expression inhibitor project, dose response (AID 1900); type: functional, organism-based
[14] = molecular target: DNA damage-inducible transcript 3 protein (Mus musculus, UniProt P35639); type: functional, Cricetulus griseus
[15] = NIH3T3 cell viability loss – ATP luminescence, mouse fibroblasts, counter-screen, dose response (AID 2010); type: functional, cell-based;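 also: cells exposed to compound for about 90 hours before reading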
[16] = HPDE-C7 pancreatic duct cell viability loss – fluorescence, HTS (AID 430); type: functional, cell-based; conditions: Homo sapiens
[17] = HIV-1 AD8 envelope cell-cell fusion blockers – cherry-pick, dose response (AID 652062); type: functional, cell-based;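 also: luciferase signal from cell-cell fusion driven by HIV-1 clade B AD8 Env; potency is for inhibitors of fusion seen as a drop in luminescence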
[18] = viability loss in CEM21 cells – cell-based, CellTiter-Glo luminescence, cherry-picked, cytotoxicity control for viral fusion inhibitor project, dose response (AID 652042); type: functional;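 also: potency for signal decrease meaning cytotoxicity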
INS1 = assay: INS-1E survival protection against cytokine death – cell-based, luminescence, retest, dose response (AID 449756); type: functional; conditions: Rattus norvegicus;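 also: cell death triggered by IL-1 beta plus TNF-alpha plus IFN-gamma mixture; protective hits raise ATP signal compared with cytokine alone wells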
[19] = microbe, parasite or virus in culture; type: functional; conditions: Mycobacterium tuberculosis
Beta-galactosidase = Beta-galactosidase (Escherichia coli, UniProt Q8VNN2); assay: detection-enzyme interference by beta-gal modulators – biochemical, E. coli enzyme, set 3, artefact control for CCR6 antagonist project, dose response (AID 504712); type: functional
Chain of Beta-galactosidase (Q8VNN2 whole entry, the tested form may be a part): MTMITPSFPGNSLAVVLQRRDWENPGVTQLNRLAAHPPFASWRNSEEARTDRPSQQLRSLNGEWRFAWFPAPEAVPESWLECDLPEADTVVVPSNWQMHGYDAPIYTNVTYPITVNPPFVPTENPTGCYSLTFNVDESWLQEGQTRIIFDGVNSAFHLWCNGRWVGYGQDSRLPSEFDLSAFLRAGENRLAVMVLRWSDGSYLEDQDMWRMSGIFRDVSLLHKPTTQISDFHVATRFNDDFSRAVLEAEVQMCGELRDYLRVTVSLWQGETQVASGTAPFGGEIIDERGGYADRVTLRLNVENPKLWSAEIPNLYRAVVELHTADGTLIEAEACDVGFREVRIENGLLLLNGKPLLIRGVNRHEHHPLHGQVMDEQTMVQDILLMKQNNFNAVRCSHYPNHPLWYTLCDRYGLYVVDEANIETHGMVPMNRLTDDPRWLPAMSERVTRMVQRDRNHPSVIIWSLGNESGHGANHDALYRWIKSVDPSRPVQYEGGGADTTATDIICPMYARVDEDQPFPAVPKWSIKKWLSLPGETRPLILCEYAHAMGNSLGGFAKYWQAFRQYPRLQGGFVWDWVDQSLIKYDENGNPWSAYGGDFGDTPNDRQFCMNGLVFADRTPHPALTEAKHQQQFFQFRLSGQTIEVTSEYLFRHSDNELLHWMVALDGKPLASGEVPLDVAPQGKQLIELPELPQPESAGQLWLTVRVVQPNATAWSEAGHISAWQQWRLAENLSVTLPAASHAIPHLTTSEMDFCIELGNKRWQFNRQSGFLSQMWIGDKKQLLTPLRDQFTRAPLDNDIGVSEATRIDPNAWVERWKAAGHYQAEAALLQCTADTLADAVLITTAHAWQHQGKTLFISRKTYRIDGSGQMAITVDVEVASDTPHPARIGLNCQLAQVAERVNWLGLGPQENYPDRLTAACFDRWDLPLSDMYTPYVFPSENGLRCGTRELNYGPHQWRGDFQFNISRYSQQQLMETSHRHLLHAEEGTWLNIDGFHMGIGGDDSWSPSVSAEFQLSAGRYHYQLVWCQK

[20] = blockers of HIV-1 ZM109 envelope-driven cell-cell fusion – HeLa effector, CEM target cells, luciferase, cherry-pick, dose response (AID 652058); type: functional, cell-based;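 also: luciferase signal from HIV-1 Env mediated cell-cell fusion of effector and target cells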
[21] = Counterscreen for IDE inhibitors: Luminescence-based cell-based high throughput dose response assay to identify compounds that are cytotoxic to HEK cells. [Related pubchem assays: 434962 (Primary screen (IDE inhibitors in singlicate)), 449730 (Counterscreen (Cytotoxicity in triplicate)), 435028 (Confirmation (IDE inhibitors in triplicate)) …; type: functional; conditions: HEK293
Insulin-degrading enzyme = molecular target: T4, Insulin-degrading enzyme (Homo sapiens, UniProt P14735); assay: Dose Response: Fluorescence polarization-based cell-based high throughput dose response assay for inhibitors of insulin-degrading enzyme (IDE). [Related pubchem assays: 434962 (Primary screen (IDE inhibitors in singlicate)), 449730 (Counterscreen (Cytotoxicity in triplicate)), 435028 (Confirmation (IDE inhibitors in triplicate)), 434984 (Summary …; type: functional
T4 sequence (P14735 whole entry): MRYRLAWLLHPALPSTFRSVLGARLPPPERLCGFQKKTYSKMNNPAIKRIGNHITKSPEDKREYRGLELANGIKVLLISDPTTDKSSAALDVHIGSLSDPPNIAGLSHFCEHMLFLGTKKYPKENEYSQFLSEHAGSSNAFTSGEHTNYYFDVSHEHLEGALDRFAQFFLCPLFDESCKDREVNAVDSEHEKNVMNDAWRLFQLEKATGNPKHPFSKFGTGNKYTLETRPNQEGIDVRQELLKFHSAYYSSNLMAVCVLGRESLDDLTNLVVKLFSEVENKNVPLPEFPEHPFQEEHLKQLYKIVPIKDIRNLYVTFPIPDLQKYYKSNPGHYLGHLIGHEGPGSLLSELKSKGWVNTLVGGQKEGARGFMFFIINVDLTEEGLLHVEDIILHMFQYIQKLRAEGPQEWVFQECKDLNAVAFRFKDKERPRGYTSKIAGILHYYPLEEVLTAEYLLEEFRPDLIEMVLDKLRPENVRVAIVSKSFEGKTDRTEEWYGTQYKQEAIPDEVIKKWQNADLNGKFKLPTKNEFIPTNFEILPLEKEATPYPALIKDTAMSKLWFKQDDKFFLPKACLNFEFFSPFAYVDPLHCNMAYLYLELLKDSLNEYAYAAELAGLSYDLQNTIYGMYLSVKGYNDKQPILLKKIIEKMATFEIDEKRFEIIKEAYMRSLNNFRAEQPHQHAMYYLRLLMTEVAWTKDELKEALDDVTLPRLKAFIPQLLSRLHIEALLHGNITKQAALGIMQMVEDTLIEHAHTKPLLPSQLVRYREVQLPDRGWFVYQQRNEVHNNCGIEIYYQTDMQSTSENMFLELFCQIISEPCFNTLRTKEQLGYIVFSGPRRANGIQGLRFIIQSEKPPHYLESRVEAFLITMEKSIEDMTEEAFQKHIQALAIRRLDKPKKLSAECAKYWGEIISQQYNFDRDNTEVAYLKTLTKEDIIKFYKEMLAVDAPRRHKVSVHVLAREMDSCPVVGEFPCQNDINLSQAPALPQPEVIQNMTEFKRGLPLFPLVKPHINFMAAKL

[22] = blockers of HIV-1 envelope-mediated cell-cell fusion – cherry-pick, dose response (AID 652057); type: functional, cell-based
[23] = viability loss of HPDE-C7K cells – cell-based, fluorescence, HTS, primary screen (AID 431); type: functional; conditions: Homo sapiens
[24] = molecular target: C-C chemokine receptor type 6 (Homo sapiens, UniProt P51684); assay: antagonism of CCR6 beta-arrestin recruitment – cell-based, luminescent beta-arrestin readout, dose response (AID 504728); type: functional

SMILES: Nc1ccc2c(C(F)(F)F)cc(C(F)(F)F)nc2n1
- AC50 (CAAX prenyl protease 2): > 100 µM (inactive)
- AC50 (Trypsin): 10.7 µM (active)

SMILES: c1ccc(-c2ccc(-c3cn4c(n3)CCC4)cc2)cc1
- AC50 (CAAX prenyl protease 2): 4.15 µM (active)
- AC50 (Trypsin): 2.37 µM (active)

SMILES: CCOC(=O)c1c(-c2ccccc2)oc2cc(Br)c(O)c(C=O)c12
- EC50 [1]: 2.69 µM (active)
- IC50 (Cysteine protease ATG4B): 9.27 µM (active)
- EC50 [2]: 4.74 µM (inconclusive)
- IC50 (Phospholipase A2): 3.36 µM (active)

SMILES: C=CCn1c(OCc2ccccc2)n[nH]c1=S
- IC50 [3]: 7.3 µM (active)
- IC50 [4]: > 100 µM (inactive)

SMILES: CC(C)Oc1ccc(OCCSc2nc3ccccc3n2CC(=O)O)cc1
- IC50 [5]: 11.5 µM (active)
- IC50 [6]: > 100 µM (inactive)
- EC50 [7]: > 195 µM (not active)

SMILES: COc1ccccc1NS(=O)(=O)c1cc(NC(=O)c2ccc(Cl)nc2)ccc1N1CCCC1
- IC50 [3]: 14.3 µM (active)
- IC50 [4]: > 100 µM (inactive)
- IC50 [8]: > 80 µM (inactive)

SMILES: Cn1c(=O)cc(SCC(=O)N2CCN(c3ccccc3)CC2)c2ccccc21
- EC50 [9]: 185 µM (not active)
- EC50 [10]: > 79.4 µM (inactive)
- EC50 [11]: > 79.4 µM (not active)

SMILES: Cn1c(=O)cc(SCC(=O)N2CCN(c3ccccn3)CC2)c2ccccc21
- EC50 [9]: > 79.4 µM (not active)
- EC50 [10]: > 79.4 µM (inactive)
- EC50 [11]: > 79.4 µM (not active)

SMILES: COc1ccc(-c2nnc(CSc3nc4ccccc4c(=O)n3CC(C)C)o2)cc1OC
- IC50 (Cysteine protease ATG4B): 6.22 µM (active)
- IC50 (Phospholipase A2): 1.19 µM (active)

SMILES: O=C(Nc1ccccc1-c1nc2ccccc2[nH]1)c1sc2ccccc2c1Cl
- EC50 (Streptokinase A): > 150 µM (not active)
- EC50 (Streptococcus): > 150 µM (not active)
- EC50 [12]: 2.1 µM (active)
- EC50 [13]: 21.3 µM (active)
- Absolute IC50 (CHOP) [14]: 10 µM
- EC50 [15]: > 60 µM (inconclusive)

SMILES: CCCn1c(Nc2nc3ccccc3n2C)nc2ccccc21
- EC50 [16]: 6.72 µM (active)
- AC50 [17]: 10.4 µM (active)
- EC50 [1]: 1.33 µM (active)
- AC50 [18]: 8.31 µM (active)
- AC50 (INS1): 7.73 µM (active)
- CC50 [19]: 13.4 µM (active)
- IC50 (Beta-galactosidase): > 66.6 µM (inactive)
- AC50 [20]: 8.59 µM (active)
- EC50 [2]: > 160 µM (inconclusive)
- IC50 [21]: 14.4 µM (not active)
- IC50 (Insulin-degrading enzyme): > 55.9 µM (not active)
- AC50 [22]: 10.1 µM (active)
- EC50 [23]: 7.01 µM (active)
- IC50 [24]: > 66.6 µM (inactive)
